Data reported in BindingDB's records for doi:10.1021/jm021050c (Universit&#233, 2003).

What follows are compounds tested against imidazoline I2 binding site (Oryctolagus cuniculus) (assay: In vitro binding affinity determined against imidazoline receptor I-2 using rabbit kidney preparation).

SMILES	Ki [nM]
c1cc2c3c(c1)OC(C1=NCCN1)CN3CCCC2 (stereo unspecified) [2-(4,5-Dihydro-1H-imidazol-2-yl)-1,2,7,8,9,10-hexahydro-3-oxa-10a-aza-cyclohepta[de]naphthalene]	643
CN1CC(C)(C2=NCCN2)Oc2ccccc21 (stereo unspecified) [2-(4,5-Dihydro-1H-imidazol-2-yl)-2,4-dimethyl-3,4-dihydro-2H-benzo[1,4]oxazine]	> 10000
c1ccc2c(c1)NCC(C1=NCCN1)O2 (stereo unspecified) [2-(4,5-Dihydro-1H-imidazol-2-yl)-3,4-dihydro-2H-benzo[1,4]oxazine]	51
Cc1cccc2c1N(C)CC(C1=NCCN1)O2 (stereo unspecified) [2-(4,5-Dihydro-1H-imidazol-2-yl)-4,5-dimethyl-3,4-dihydro-2H-benzo[1,4]oxazine]	470
Cc1cc(C)c2c(c1)N(C)CC(C1=NCCN1)O2 (stereo unspecified) [2-(4,5-Dihydro-1H-imidazol-2-yl)-4,6,8-trimethyl-3,4-dihydro-2H-benzo[1,4]oxazine]	> 1000
Cc1ccc2c(c1)OC(C1=NCCN1)CN2C (stereo unspecified) [2-(4,5-Dihydro-1H-imidazol-2-yl)-4,7-dimethyl-3,4-dihydro-2H-benzo[1,4]oxazine]	47
Cc1cccc2c1OC(C1=NCCN1)CN2C (stereo unspecified) [2-(4,5-Dihydro-1H-imidazol-2-yl)-4,8-dimethyl-3,4-dihydro-2H-benzo[1,4]oxazine]	54
CCCC1(C2=NCCN2)CN(C)c2ccccc2O1 (stereo unspecified) [2-(4,5-Dihydro-1H-imidazol-2-yl)-4-methyl-2-propyl-3,4-dihydro-2H-benzo[1,4]oxazine]	8530
COC(=O)c1ccc2c(c1)N(C)CC(C1=NCCN1)O2 (stereo unspecified) [2-(4,5-Dihydro-1H-imidazol-2-yl)-4-methyl-3,4-dihydro-2H-benzo[1,4]oxazine-6-carboxylic acid methyl ester]	7
CN1CC(C2=NCCN2)Oc2cc3ccccc3cc21 (stereo unspecified) [2-(4,5-Dihydro-1H-imidazol-2-yl)-4-methyl-3,4-dihydro-2H-naphtho[2,3-b][1,4]oxazine]	278
CCOCc1ccc2c(c1)N(C)CC(C1=NCCN1)O2 (stereo unspecified) [2-(4,5-Dihydro-1H-imidazol-2-yl)-6-ethoxymethyl-4-methyl-3,4-dihydro-2H-benzo[1,4]oxazine]	17
COc1cc(=O)n2c3c(cccc13)OC(C1=NCCN1)C2 (stereo unspecified) [2-(4,5-Dihydro-1H-imidazol-2-yl)-6-methoxy-2,3-dihydro-1-oxa-3a-aza-phenalen-4-one]	750
Cc1ccc2c3c1CCCN3CC(C1=NCCN1)O2 (stereo unspecified) [2-(4,5-Dihydro-1H-imidazol-2-yl)-7-methyl-2,3,5,6-tetrahydro-4H-1-oxa-3a-aza-phenalene]	> 1000
c1cc2c3c(c1)OC(C1=NCCN1)CN3CC2 (stereo unspecified) [4-(4,5-Dihydro-1H-imidazol-2-yl)-1,2,3,4-tetrahydro-5-oxa-2a-aza-acenaphthylene]	33
CN1CC(C2=NCCN2)Oc2ccc(Cl)cc21 (stereo unspecified) [6-Chloro-2-(4,5-dihydro-1H-imidazol-2-yl)-4-methyl-3,4-dihydro-2H-benzo[1,4]oxazine]	173
CN1CC(C2=NCCN2)Oc2ccc(CO)cc21 (stereo unspecified) [[2-(4,5-Dihydro-1H-imidazol-2-yl)-4-methyl-3,4-dihydro-2H-benzo[1,4]oxazin-6-yl]-methanol]	100
